Experimental data published in ChEMBL document CHEMBL5442175, “EUbOPEN Chemogenomics Library - PDSP Secondary Binding” (2024).
pKi: −log10 of the molar value.

Legend:
[1] = target: Translocator protein (Homo sapiens, UniProt P30536); experiment: (§1) PDSP Secondary Binding target: TSPO - Compounds are tested at 10 uM concentration, plate are incubated at room temperature in the dark for 90 minutes. Reaction are stopped by vacuum filtration onto 0.3% polyethyleneimine soaked filter mats using Filtermate harvester. Scintillation cocktail is then melted onto microwave-dried filters on a hot plate and the radio activity is counted in Microbia counter.
[2] = target: Sigma non-opioid intracellular receptor 1 (Homo sapiens, UniProt Q99720); experiment: as §1, with “SIGMAR1” for “TSPO”
Sigma non-opioid intracellular receptor 1, sequence (Q99720 whole entry): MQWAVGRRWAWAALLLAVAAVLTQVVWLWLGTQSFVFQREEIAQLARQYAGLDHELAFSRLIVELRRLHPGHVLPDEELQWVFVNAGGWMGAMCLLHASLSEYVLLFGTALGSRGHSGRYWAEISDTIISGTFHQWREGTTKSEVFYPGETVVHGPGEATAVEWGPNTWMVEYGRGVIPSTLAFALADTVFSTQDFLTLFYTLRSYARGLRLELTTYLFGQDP

[3] = target: 5-hydroxytryptamine receptor 5A (Homo sapiens, UniProt P47898); experiment: as §1, with “HTR5A” for “TSPO”
[4] = target: Sodium-dependent noradrenaline transporter (Homo sapiens, UniProt P23975); experiment: as §1, with “SLC6A2” for “TSPO”
Sodium-dependent noradrenaline transporter, sequence (P23975 whole entry): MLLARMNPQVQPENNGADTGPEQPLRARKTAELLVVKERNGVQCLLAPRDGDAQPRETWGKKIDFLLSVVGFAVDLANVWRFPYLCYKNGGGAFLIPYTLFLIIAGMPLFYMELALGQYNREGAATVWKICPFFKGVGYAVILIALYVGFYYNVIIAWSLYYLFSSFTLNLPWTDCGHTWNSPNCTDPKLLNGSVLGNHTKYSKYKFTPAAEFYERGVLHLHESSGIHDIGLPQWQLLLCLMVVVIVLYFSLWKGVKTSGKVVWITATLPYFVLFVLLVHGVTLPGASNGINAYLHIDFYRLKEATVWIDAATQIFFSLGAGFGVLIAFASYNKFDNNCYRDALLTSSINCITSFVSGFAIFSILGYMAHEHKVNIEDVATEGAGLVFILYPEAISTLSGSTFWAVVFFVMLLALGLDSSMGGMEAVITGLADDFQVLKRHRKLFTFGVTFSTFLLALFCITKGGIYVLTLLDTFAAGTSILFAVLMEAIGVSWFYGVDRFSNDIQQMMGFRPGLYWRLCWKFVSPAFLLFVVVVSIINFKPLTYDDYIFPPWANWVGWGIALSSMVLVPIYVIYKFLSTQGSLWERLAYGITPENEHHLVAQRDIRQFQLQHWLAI

[5] = target: T1, Alpha-2C adrenergic receptor (Homo sapiens, UniProt P18825); experiment: as §1, with “ADRA2C” for “TSPO”
T1 sequence (P18825 whole entry): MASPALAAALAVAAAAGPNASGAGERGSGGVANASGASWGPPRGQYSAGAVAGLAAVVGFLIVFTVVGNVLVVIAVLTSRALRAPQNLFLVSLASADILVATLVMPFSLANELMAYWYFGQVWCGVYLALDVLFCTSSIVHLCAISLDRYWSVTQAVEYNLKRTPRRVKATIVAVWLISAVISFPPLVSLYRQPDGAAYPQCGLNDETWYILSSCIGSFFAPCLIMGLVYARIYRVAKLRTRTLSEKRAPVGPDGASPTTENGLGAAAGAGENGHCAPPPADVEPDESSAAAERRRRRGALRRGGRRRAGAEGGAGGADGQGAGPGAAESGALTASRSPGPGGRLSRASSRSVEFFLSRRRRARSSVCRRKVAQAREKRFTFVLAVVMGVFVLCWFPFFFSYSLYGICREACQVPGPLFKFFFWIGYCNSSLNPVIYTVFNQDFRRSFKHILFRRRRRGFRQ

[6] = target: D(3) dopamine receptor (Homo sapiens, UniProt P35462); experiment: as §1, with “DRD3” for “TSPO”
[7] = target: Beta-3 adrenergic receptor (Homo sapiens, UniProt P13945); experiment: as §1, with “ADRB3” for “TSPO”
Beta-3 adrenergic receptor, sequence (P13945 whole entry): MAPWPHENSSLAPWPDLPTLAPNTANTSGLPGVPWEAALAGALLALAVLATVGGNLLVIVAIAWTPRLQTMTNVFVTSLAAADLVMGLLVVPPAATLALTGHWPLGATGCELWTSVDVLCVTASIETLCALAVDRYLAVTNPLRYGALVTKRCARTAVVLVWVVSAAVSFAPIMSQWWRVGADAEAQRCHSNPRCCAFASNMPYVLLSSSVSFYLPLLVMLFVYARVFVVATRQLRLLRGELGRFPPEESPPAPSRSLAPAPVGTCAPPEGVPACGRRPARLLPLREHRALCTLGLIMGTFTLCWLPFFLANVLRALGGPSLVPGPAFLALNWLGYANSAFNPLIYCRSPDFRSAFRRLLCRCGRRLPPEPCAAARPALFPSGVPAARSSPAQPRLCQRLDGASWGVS

[8] = target: T2, Alpha-2A adrenergic receptor (Homo sapiens, UniProt P08913); experiment: as §1, with “ADRA2A” for “TSPO”
T2 sequence (P08913 whole entry): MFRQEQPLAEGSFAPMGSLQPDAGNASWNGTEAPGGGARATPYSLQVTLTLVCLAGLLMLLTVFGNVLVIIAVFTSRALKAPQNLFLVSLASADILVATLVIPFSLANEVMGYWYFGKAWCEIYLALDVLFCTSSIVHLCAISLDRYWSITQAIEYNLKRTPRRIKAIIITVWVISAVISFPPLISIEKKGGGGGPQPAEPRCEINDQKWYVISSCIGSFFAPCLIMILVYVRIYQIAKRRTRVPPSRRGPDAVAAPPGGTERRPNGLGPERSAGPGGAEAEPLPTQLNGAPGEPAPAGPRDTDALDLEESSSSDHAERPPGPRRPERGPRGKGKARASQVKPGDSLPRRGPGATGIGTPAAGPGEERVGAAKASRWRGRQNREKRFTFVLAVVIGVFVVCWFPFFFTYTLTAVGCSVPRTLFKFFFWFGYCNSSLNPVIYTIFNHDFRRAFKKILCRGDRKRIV

[9] = target: 5-hydroxytryptamine receptor 2A (Homo sapiens, UniProt P28223); experiment: as §1, with “HTR2A” for “TSPO”
5-hydroxytryptamine receptor 2A, sequence (P28223 whole entry): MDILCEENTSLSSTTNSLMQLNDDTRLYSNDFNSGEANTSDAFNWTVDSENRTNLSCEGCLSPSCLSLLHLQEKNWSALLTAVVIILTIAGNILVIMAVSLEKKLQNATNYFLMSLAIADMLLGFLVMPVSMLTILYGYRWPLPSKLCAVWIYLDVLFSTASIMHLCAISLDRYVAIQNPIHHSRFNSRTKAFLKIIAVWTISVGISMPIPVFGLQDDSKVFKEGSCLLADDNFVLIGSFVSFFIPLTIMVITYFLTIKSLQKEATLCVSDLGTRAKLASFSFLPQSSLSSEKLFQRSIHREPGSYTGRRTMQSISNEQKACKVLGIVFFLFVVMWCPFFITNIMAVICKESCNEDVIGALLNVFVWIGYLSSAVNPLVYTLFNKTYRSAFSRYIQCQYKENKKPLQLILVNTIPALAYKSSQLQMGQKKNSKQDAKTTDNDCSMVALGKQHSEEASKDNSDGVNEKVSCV

[10] = target: 5-hydroxytryptamine receptor 7 (Homo sapiens, UniProt P34969); experiment: as §1, with “HTR7” for “TSPO”
5-hydroxytryptamine receptor 7, sequence (P34969 whole entry): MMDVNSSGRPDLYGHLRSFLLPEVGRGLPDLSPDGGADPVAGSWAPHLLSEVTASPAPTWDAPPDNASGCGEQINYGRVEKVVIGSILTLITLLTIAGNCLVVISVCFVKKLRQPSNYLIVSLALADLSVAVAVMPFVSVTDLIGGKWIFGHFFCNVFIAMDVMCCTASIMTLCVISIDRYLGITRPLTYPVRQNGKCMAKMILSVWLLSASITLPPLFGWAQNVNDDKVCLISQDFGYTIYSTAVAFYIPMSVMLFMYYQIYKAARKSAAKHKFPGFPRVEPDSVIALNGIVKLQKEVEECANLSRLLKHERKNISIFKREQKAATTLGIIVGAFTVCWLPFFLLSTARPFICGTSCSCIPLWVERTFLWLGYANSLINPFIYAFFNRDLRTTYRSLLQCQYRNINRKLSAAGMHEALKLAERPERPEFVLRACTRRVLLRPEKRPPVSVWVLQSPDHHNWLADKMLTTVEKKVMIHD

[11] = target: Mu-type opioid receptor (Homo sapiens, UniProt P35372); experiment: as §1, with “OPRM1” for “TSPO”
Mu-type opioid receptor, sequence (P35372 whole entry): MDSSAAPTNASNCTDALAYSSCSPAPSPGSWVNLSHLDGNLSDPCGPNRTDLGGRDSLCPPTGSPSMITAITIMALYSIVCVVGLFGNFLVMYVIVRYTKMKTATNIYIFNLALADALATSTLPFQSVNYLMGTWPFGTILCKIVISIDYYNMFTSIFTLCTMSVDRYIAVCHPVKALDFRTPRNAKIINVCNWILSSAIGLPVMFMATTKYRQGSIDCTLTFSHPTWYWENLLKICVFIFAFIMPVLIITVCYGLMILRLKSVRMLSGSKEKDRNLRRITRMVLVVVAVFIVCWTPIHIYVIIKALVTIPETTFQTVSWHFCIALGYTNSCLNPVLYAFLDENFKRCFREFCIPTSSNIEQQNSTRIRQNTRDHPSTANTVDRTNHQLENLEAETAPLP

[12] = target: T3, Alpha-1D adrenergic receptor (Homo sapiens, UniProt P25100); experiment: as §1, with “ADRA1D” for “TSPO”
T3 sequence (P25100 whole entry): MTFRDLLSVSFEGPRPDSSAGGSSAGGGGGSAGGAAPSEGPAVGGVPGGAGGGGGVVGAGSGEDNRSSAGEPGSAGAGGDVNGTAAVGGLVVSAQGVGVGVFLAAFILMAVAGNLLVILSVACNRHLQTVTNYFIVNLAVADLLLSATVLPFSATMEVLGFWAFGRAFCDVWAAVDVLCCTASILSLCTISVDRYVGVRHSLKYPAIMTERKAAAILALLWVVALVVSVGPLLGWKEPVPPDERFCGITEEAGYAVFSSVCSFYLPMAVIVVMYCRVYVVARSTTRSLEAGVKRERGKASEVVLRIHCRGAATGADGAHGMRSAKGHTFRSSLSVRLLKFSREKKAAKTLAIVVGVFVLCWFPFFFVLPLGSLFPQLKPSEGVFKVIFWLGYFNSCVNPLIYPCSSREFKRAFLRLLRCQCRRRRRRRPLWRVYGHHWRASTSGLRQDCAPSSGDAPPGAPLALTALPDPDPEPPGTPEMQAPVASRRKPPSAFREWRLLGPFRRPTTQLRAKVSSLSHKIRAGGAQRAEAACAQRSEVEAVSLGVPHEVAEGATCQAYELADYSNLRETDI

[13] = target: D(1B) dopamine receptor (Homo sapiens, UniProt P21918); experiment: as §1, with “DRD5” for “TSPO”
D(1B) dopamine receptor, sequence (P21918 whole entry): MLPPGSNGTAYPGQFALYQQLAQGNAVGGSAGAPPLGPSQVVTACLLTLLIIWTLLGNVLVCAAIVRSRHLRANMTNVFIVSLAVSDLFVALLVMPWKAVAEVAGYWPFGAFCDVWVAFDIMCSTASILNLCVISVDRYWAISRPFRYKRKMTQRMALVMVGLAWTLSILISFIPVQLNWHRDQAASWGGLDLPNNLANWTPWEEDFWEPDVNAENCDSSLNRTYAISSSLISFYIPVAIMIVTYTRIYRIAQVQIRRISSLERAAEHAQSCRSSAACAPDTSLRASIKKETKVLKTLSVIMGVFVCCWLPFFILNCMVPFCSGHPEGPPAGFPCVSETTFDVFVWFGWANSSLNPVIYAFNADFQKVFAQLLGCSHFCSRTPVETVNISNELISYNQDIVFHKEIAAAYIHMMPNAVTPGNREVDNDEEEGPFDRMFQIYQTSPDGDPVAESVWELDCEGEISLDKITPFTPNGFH

[14] = target: 5-hydroxytryptamine receptor 1E (Homo sapiens, UniProt P28566); experiment: as §1, with “HTR1E” for “TSPO”
5-hydroxytryptamine receptor 1E, sequence (P28566 whole entry): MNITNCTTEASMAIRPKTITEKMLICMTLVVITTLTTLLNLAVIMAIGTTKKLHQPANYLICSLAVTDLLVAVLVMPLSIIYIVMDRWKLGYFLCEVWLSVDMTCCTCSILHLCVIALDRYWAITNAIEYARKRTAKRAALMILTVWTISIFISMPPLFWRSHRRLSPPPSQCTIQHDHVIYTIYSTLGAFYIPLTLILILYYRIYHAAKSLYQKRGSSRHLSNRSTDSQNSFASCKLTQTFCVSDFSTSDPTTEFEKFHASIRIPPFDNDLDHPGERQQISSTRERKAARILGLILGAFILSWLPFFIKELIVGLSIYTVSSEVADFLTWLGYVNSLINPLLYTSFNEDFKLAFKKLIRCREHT

[15] = target: 5-hydroxytryptamine receptor 1D (Homo sapiens, UniProt P28221); experiment: as §1, with “HTR1D” for “TSPO”
5-hydroxytryptamine receptor 1D, sequence (P28221 whole entry): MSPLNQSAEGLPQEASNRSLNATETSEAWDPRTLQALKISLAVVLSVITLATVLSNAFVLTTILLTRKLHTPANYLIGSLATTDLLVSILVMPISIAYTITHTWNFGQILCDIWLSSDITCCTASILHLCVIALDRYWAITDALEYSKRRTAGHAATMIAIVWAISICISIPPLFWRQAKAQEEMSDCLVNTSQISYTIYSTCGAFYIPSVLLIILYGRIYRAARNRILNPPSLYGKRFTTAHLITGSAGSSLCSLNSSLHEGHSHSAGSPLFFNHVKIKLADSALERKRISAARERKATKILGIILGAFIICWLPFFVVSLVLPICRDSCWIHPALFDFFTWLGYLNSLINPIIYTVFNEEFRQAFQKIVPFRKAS

[16] = target: Sigma intracellular receptor 2 (Homo sapiens, UniProt Q5BJF2); experiment: as §1, with “TMEM97” for “TSPO”
Sigma intracellular receptor 2, sequence (Q5BJF2 whole entry): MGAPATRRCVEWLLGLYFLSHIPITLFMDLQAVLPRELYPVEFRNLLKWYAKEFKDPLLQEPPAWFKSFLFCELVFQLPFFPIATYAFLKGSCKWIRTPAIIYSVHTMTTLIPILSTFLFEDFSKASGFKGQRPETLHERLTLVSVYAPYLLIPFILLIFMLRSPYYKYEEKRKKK

[17] = target: T4, Muscarinic acetylcholine receptor M5 (Homo sapiens, UniProt P08912); experiment: as §1, with “CHRM5” for “TSPO”
T4 sequence (P08912 whole entry): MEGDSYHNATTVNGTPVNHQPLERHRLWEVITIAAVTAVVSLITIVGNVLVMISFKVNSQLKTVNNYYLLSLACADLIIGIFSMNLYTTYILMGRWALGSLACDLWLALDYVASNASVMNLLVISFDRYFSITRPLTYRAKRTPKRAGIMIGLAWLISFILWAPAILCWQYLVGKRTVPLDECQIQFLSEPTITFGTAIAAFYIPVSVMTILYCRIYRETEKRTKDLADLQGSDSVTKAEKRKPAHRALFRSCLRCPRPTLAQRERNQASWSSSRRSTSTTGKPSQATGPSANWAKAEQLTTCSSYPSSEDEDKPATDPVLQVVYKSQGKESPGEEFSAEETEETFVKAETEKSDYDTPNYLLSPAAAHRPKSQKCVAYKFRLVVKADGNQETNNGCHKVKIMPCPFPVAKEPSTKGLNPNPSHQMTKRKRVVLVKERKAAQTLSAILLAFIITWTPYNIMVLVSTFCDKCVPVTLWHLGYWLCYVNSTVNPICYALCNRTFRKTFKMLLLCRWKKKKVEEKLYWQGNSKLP

[18] = target: Kappa-type opioid receptor (Homo sapiens, UniProt P41145); experiment: as §1, with “OPRK1” for “TSPO”
Kappa-type opioid receptor, sequence (P41145 whole entry): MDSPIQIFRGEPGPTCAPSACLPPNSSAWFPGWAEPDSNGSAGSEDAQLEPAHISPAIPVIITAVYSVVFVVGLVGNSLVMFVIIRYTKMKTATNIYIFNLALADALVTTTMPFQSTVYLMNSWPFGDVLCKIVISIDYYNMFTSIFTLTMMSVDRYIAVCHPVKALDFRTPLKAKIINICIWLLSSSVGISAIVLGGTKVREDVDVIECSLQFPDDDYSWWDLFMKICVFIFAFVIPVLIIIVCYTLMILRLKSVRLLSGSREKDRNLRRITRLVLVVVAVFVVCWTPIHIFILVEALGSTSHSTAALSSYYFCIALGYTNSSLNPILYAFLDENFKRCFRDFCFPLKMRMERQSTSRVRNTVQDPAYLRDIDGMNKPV

[19] = target: Histamine H3 receptor (Homo sapiens, UniProt Q9Y5N1); experiment: as §1, with “HRH3” for “TSPO”
Histamine H3 receptor, sequence (Q9Y5N1 whole entry): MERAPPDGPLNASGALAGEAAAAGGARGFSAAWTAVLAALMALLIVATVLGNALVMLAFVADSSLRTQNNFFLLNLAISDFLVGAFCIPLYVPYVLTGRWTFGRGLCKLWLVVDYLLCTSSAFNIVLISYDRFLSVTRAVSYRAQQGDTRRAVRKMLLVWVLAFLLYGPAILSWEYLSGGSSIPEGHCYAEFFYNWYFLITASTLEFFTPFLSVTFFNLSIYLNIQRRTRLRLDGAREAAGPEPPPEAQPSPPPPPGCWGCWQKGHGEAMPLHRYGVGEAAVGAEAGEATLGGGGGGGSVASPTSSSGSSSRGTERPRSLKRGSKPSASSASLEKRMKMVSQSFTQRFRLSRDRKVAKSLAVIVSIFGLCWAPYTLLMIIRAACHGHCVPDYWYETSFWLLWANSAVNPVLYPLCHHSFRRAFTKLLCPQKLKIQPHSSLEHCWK

[20] = target: T5, 5-hydroxytryptamine receptor 1A (Homo sapiens, UniProt P08908); experiment: as §1, with “HTR1A” for “TSPO”
T5 sequence (P08908 whole entry): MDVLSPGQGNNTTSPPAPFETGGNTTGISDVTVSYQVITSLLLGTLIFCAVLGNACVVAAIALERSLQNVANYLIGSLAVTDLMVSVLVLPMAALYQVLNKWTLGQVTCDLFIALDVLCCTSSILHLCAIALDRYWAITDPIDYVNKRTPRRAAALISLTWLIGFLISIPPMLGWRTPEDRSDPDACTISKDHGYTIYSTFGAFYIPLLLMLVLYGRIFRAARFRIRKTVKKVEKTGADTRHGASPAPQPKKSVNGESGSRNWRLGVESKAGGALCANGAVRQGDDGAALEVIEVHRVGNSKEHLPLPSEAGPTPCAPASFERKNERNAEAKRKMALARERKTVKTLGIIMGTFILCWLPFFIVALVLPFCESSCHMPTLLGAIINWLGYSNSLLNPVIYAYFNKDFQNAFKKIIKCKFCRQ

[21] = target: T6, Alpha-1B adrenergic receptor (Homo sapiens, UniProt P35368); experiment: as §1, with “ADRA1B” for “TSPO”
T6 sequence (P35368 whole entry): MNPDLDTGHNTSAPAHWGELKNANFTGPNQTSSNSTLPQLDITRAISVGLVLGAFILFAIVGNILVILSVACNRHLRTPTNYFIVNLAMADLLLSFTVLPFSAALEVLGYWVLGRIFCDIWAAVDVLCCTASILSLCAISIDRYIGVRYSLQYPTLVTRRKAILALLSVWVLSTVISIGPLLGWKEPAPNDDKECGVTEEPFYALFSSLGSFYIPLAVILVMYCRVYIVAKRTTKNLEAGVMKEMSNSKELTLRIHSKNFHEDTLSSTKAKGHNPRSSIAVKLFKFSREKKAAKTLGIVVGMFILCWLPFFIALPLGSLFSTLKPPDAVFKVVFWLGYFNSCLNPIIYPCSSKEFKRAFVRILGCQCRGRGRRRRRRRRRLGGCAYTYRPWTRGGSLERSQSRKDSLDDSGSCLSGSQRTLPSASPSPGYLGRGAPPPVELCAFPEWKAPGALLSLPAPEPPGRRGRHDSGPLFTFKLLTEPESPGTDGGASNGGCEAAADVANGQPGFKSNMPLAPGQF

[22] = target: D(2) dopamine receptor (Homo sapiens, UniProt P14416); experiment: as §1, with “DRD2” for “TSPO”
[23] = target: T7, D(4) dopamine receptor (Homo sapiens, UniProt P21917); experiment: as §1, with “DRD4” for “TSPO”
T7 sequence (P21917 whole entry): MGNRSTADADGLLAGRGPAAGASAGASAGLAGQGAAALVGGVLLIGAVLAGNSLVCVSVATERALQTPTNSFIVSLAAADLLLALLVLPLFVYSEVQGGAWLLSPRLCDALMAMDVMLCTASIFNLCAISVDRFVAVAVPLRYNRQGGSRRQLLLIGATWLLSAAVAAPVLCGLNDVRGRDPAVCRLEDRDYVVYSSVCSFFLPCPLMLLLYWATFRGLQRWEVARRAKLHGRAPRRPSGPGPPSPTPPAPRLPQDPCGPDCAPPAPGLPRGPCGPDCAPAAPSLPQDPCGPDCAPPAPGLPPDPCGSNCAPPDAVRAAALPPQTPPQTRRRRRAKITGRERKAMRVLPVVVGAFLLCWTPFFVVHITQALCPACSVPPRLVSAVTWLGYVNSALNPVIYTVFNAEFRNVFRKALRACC

SMILES	pKi [2]	pKi [10]	pKi [11]	pKi [13]	pKi [14]	pKi [15]	pKi [16]	also measured
Cc1cc(C)cc(-c2cnc3cc(Cl)c(-c4cccc(O)c4)cc3c2OCCCN)c1	< 5.00	5.66	5.25	6.00	5.24	6.53	5.28	pKi [1]: 6.28; pKi [3]: 6.07; pKi [4]: 5.24; pKi [5]: 6.07; pKi [6]: 6.38; pKi [7]: 5.56; pKi [8]: 6.07; pKi [9]: 5.46; pKi [12]: 5.78
CN1CCC(C(=O)c2cccc(NC(=O)c3c(F)cc(F)cc3F)n2)CC1	5.50	5.27		6.60	6.90	6.06	6.74	pKi [17]: 6.20; pKi [18]: 6.45
c1nc(CC2CCNCC2)c[nH]1								pKi [19]: 9.20
CN[C@@H]1CCc2[nH]c3ccc(C(N)=O)cc3c2C1 [FROVATRIPTAN SUCCINATE]			6.73		6.51		5.49	pKi [20]: 5.83; pKi [21]: < 5.00; pKi [22]: 6.16; pKi [23]: 6.04
